In patent US10206394B2, “Herbicidal compounds” (Syngenta Participations AG, priority 2014, dated 2019) one finds pest or weed control data, which are given here for 14 molecules.

What all share (test): Glasshouse assay for herbicidal activity (pre- and post-emergence), percentage phytotoxicity
Holding throughout (assay type): in vivo

For experiment [1], the system named is Lolium perenne (LOLPE). Conditions: Lolium perenne, 250 g/ha, visual assessment (100%=total damage, 0%=no damage). In short, it runs like this: (§1)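 Damage was rated visually as percent phytotoxicity, 100% meaning total kill, 20 days after pre-emergence application (made one day post-sowing) or 15 days after post-emergence application (made about 12 days post-sowing). Plants were grown under 16 h light, 65% humidity, warm species 24/18° C, cool 20/16° C.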

Experiment [2] concerns Avena fatua (AVEFA). The note with it: Avena fatua, 250 g/ha, visual assessment (100%=total damage, 0%=no damage). A digest of the protocol: as §1
Experiment [3] has as its system Alopecurus myosuroides (ALOMY). Conditions: Alopecurus myosuroides, 250 g/ha, visual assessment (100%=total damage, 0%=no damage). A digest of the protocol: as §1
Experiment [4] deals with Echinochloa crus-galli (ECHCG). The note with it: Echinochloa crus-galli, 250 g/ha, visual assessment (100%=total damage, 0%=no damage). A digest of the protocol: as §1
The mark [5] stands for this setting: post-emergence, 360 h, post-emergence, 15 DAA, read-out: Post-emergence herbicidal activity (percentage phytotoxicity) LOLPE POST.
Setting [6] is: pre-emergence, 480 h, pre-emergence, 20 DAA, read-out: Pre-emergence herbicidal activity (percentage phytotoxicity) LOLPE PRE.
The mark [7] stands for this setting: post-emergence, 360 h, post-emergence, 15 DAA, read-out: Post-emergence herbicidal activity (percentage phytotoxicity) AVEFA POST.
The mark [8] stands for this setting: pre-emergence, 480 h, pre-emergence, 20 DAA, read-out: Pre-emergence herbicidal activity (percentage phytotoxicity) AVEFA PRE.
Setting [9] is: post-emergence, 360 h, post-emergence, 15 DAA, read-out: Post-emergence herbicidal activity (percentage phytotoxicity) ALOMY POST.
Where [10] appears, read: pre-emergence, 480 h, pre-emergence, 20 DAA, read-out: Pre-emergence herbicidal activity (percentage phytotoxicity) ALOMY PRE.
[11] abbreviates: post-emergence, 360 h, post-emergence, 15 DAA, read-out: Post-emergence herbicidal activity (percentage phytotoxicity) ECHCG POST.
Setting [12] is: pre-emergence, 480 h, pre-emergence, 20 DAA, read-out: Pre-emergence herbicidal activity (percentage phytotoxicity) ECHCG PRE.

Where two headings read alike, the source gives them in different places.

As to `Cc1cc(-c2ncc(F)cn2)cc(C)c1C1C(=O)CC(CC(=O)NCC(C)C)C1=O` (stereo not shown) [Compound B112], the pest or weed control at 250 g/ha in experiment [1] (setting [5]), in experiment [1] (setting [6]), in experiment [2] (setting [7]), in experiment [2] (setting [8]), in experiment [3] (setting [9]) and in experiment [3] (setting [10]) was 100% throughout. The pest or weed control at 250 g/ha in experiment [4] (setting [11]) and in experiment [4] (setting [12]) was 100% in each case.
Take `C#CC(C)(C)NC(=O)CC1CC(=O)C(c2c(C)cc(-c3ncc(F)cn3)cc2C)C1=O` (stereo not shown) [Compound B113]: the pest or weed control at 250 g/ha was 100% in experiment [1] (setting [5]); 90% in experiment [1] (setting [6]); 100% in experiment [2] (setting [7]); 90% in experiment [2] (setting [8]); 100% in experiment [3] (setting [9]); 90% in experiment [3] (setting [10]). Moreover, the pest or weed control at 250 g/ha in experiment [4] (setting [11]) and in experiment [4] (setting [12]) was 100% throughout.
Turning to `Cc1cc(-c2ncc(F)cn2)cc(C)c1C1C(=O)CC(CC(=O)NC2CCCC2)C1=O` (stereo not shown) [Compound B114], the pest or weed control at 250 g/ha in experiment [1] (setting [5]) came to 90%; in experiment [1] (setting [6]), 90%; in experiment [2] (setting [7]), 90%; in experiment [2] (setting [8]), 60%; in experiment [3] (setting [9]), 90%; in experiment [3] (setting [10]), 90%. The pest or weed control at 250 g/ha in experiment [4] (setting [11]) and in experiment [4] (setting [12]) was 100% in each case.
For the molecule `Cc1cc(C)c(C2C(=O)CC(CC(=O)NC/C=C/Br)C2=O)c(C)c1` (stereo not shown) [Compound B115], the pest or weed control at 250 g/ha was 100% in experiment [1] (setting [5]); 100% in experiment [1] (setting [6]); 80% in experiment [2] (setting [7]); 50% in experiment [2] (setting [8]); 80% in experiment [3] (setting [9]); 80% in experiment [3] (setting [10]). Also, the figures for the pest or weed control at 250 g/ha in experiment [4] (setting [11]) and in experiment [4] (setting [12]) were 90% and 100%, respectively.
Take `C=CCNC(=O)CC1CC(=O)C(c2c(C)cc(-c3ncc(Cl)cc3F)cc2C)C1=O` (stereo not shown) [Compound B116]: the pest or weed control at 250 g/ha in experiment [1] (setting [5]) was found to be 100%; in experiment [1] (setting [6]), 100%; in experiment [2] (setting [7]) it was 100%; in experiment [2] (setting [8]) it was 90%; in experiment [3] (setting [9]), 100%; in experiment [3] (setting [10]), 100%. Further, the pest or weed control at 250 g/ha in experiment [4] (setting [11]) and in experiment [4] (setting [12]) was 100% throughout.
In the case of `C=CCNC(=O)CC1CC(=O)C(c2c(C)cc(Br)cc2C)C1=O` (stereo not shown) [Compound B117], the pest or weed control at 250 g/ha came out at 70% in experiment [1] (setting [5]); 70% in experiment [1] (setting [6]); 70% in experiment [2] (setting [7]); 20% in experiment [2] (setting [8]); 80% in experiment [3] (setting [9]); 70% in experiment [3] (setting [10]). Further, the pest or weed control at 250 g/ha in experiment [4] (setting [11]) and in experiment [4] (setting [12]) was 70% in each case.
`Cc1cc(-c2ncc(Cl)cc2F)cc(C)c1C1C(=O)CC(CC(=O)NC(C)C)C1=O` (stereo not shown) [Compound B118]: the pest or weed control at 250 g/ha came out at 100% in experiment [1] (setting [5]); 100% in experiment [1] (setting [6]); 100% in experiment [2] (setting [7]); 90% in experiment [2] (setting [8]); 100% in experiment [3] (setting [9]); 100% in experiment [3] (setting [10]). In addition, the pest or weed control at 250 g/ha in experiment [4] (setting [11]) and in experiment [4] (setting [12]) was 100% in each case.
Turning to `CCC(C)NC(=O)CC1CC(=O)C(c2c(C)cc(-c3ncc(Cl)cc3F)cc2C)C1=O` (stereo not shown) [Compound B119], the pest or weed control at 250 g/ha was 100% in experiment [1] (setting [5]); 100% in experiment [1] (setting [6]); 100% in experiment [2] (setting [7]); 90% in experiment [2] (setting [8]); 100% in experiment [3] (setting [9]); 100% in experiment [3] (setting [10]). Further, the pest or weed control at 250 g/ha in experiment [4] (setting [11]) and in experiment [4] (setting [12]) was 100% throughout.
In the case of `CCC(C)NC(=O)CC1CC(=O)C(c2c(C)cc(Br)cc2C)C1=O` (stereo not shown) [Compound B120], the pest or weed control at 250 g/ha in experiment [1] (setting [5]) was 90%; in experiment [1] (setting [6]) it was 90%; in experiment [2] (setting [7]), 90%; in experiment [2] (setting [8]), 70%; in experiment [3] (setting [9]), 80%; in experiment [3] (setting [10]) it was 80%. For the same molecule, the pest or weed control at 250 g/ha in experiment [4] (setting [11]) and in experiment [4] (setting [12]) was 80% each time.
Consider `COCC(C)NC(=O)CC1CC(=O)C(c2c(C)cc(-c3ncc(Cl)cc3F)cc2C)C1=O` (stereo not shown) [Compound B121], for which the pest or weed control at 250 g/ha in experiment [1] (setting [5]) came to 100%; in experiment [1] (setting [6]) it was 100%; in experiment [2] (setting [7]) it was 100%; in experiment [2] (setting [8]), 90%; in experiment [3] (setting [9]), 100%; in experiment [3] (setting [10]), 100%. Further, the pest or weed control at 250 g/ha in experiment [4] (setting [11]) and in experiment [4] (setting [12]) was 100% throughout.
For `Cc1cc(Br)cc(C)c1C1C(=O)CC(CC(=O)NCC2CC2)C1=O` (stereo not shown) [Compound B122], the pest or weed control at 250 g/ha in experiment [1] (setting [5]) turned out to be 100%; in experiment [1] (setting [6]), 90%; in experiment [2] (setting [7]), 100%; in experiment [2] (setting [8]), 80%; in experiment [3] (setting [9]), 100%; in experiment [3] (setting [10]), 80%. Further, the pest or weed control at 250 g/ha is 100% in experiment [4] (setting [11]) and 70% in experiment [4] (setting [12]).
With `Cc1cc(-c2ncc(Cl)cc2F)cc(C)c1C1C(=O)CC(CC(=O)NCC2CC2)C1=O` (stereo not shown) [Compound B123], the pest or weed control at 250 g/ha in experiment [1] (setting [5]) amounted to 100%; in experiment [1] (setting [6]), 100%; in experiment [2] (setting [7]), 100%; in experiment [2] (setting [8]), 90%; in experiment [3] (setting [9]), 100%; in experiment [3] (setting [10]) it was 100%. Also, the pest or weed control at 250 g/ha in experiment [4] (setting [11]) and in experiment [4] (setting [12]) was 100% each time.
With `Cc1cc(-c2ncc(Cl)cc2F)cc(C)c1C1C(=O)CC(CC(=O)NCC(C)C)C1=O` (stereo not shown) [Compound B124], the pest or weed control at 250 g/ha in experiment [1] (setting [5]) was determined as 100%; in experiment [1] (setting [6]), 100%; in experiment [2] (setting [7]), 100%; in experiment [2] (setting [8]) it was 100%; in experiment [3] (setting [9]), 100%; in experiment [3] (setting [10]) it was 90%. Also, the pest or weed control at 250 g/ha in experiment [4] (setting [11]) and in experiment [4] (setting [12]) was 100% in each case.
For `Cc1cc(-c2ncc(Cl)cc2F)cc(C)c1C1C(=O)CC(CC(=O)NC2CCCC2)C1=O` (stereo not shown) [Compound B125], the pest or weed control at 250 g/ha was determined as 100% in experiment [1] (setting [5]); 100% in experiment [1] (setting [6]); 100% in experiment [2] (setting [7]); 40% in experiment [2] (setting [8]); 90% in experiment [3] (setting [9]); 80% in experiment [3] (setting [10]). For the same molecule, the pest or weed control at 250 g/ha in experiment [4] (setting [11]) and in experiment [4] (setting [12]) was 100% throughout.
